The source of these data is ChEMBL document CHEMBL1743201, “Casarett and Doull's Toxicology The Basic Science of Poisons, 7th edition” (2008).

What all share (assay type): ADME
One data set concerns the target T1, Cytochrome P450 2B6 (Homo sapiens, UniProt P20813).
T1 sequence (P20813 whole entry): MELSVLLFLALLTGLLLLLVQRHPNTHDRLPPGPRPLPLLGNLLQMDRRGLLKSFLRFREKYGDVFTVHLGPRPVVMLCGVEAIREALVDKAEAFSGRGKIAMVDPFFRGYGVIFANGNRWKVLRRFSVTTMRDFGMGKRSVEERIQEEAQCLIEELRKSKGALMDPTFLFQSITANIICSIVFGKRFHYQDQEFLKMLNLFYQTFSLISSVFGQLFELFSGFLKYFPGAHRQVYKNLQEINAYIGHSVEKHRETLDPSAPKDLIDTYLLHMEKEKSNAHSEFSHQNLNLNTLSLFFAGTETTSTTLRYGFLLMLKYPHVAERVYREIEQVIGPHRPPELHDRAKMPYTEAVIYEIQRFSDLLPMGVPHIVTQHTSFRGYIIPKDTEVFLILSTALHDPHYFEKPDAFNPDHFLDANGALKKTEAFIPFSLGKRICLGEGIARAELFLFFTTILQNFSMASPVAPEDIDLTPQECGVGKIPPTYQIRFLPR
Description: Clinically relevant substrates of human liver microsomal P450 enzymes, isoform CYP2B6. Conditions: microsomes. On the technique in general: Liver microsomes are a subcellular fraction often used to study metabolism.

Another data set has as its target T2, Sulfotransferase 4A1 (Homo sapiens, UniProt Q9BR01).
T2 sequence (Q9BR01 whole entry): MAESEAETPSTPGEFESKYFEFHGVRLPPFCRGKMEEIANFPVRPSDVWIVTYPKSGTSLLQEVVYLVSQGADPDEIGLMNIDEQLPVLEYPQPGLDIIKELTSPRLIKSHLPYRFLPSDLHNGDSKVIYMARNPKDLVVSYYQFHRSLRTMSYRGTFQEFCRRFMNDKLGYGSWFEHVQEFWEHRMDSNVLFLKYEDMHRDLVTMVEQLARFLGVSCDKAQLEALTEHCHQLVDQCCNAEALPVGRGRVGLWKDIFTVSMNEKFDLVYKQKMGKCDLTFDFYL
Description: Major substrate of human cytosolic sulfotransferase SULT4A1_v1.

The target in a further data set is Sulfotransferase 1B1 (Homo sapiens, UniProt O43704). Description: Major substrate of human cytosolic sulfotransferase SULT1B1.
Another data set deals with Sulfotransferase 1A1 (Homo sapiens, UniProt P50225). Description: Major substrate of human cytosolic sulfotransferase SULT1A1.
The next data set deals with T3, Cytochrome P450 2C8 (Homo sapiens, UniProt P10632).
T3 sequence (P10632 whole entry): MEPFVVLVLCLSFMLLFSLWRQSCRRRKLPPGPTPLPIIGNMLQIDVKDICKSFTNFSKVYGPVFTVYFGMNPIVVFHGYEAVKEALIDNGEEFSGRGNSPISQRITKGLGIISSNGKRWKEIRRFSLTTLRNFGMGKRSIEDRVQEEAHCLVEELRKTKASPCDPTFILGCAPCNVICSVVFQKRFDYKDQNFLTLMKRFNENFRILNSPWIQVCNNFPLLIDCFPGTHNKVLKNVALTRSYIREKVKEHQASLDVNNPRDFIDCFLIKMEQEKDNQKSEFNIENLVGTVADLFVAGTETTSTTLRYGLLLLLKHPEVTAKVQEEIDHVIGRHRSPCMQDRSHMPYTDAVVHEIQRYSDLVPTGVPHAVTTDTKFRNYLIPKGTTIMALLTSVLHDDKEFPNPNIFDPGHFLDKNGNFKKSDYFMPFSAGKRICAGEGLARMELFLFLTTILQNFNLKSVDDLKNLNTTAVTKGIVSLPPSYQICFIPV
Description: Clinically relevant inhibitors of human liver microsomal P450 enzymes, isoform CYP2C8. As to conditions: microsomes.

In data set [1] the target is T4, UDP-glucuronosyltransferase 1A10 (Homo sapiens, UniProt Q9HAW8).
T4 sequence (Q9HAW8 whole entry): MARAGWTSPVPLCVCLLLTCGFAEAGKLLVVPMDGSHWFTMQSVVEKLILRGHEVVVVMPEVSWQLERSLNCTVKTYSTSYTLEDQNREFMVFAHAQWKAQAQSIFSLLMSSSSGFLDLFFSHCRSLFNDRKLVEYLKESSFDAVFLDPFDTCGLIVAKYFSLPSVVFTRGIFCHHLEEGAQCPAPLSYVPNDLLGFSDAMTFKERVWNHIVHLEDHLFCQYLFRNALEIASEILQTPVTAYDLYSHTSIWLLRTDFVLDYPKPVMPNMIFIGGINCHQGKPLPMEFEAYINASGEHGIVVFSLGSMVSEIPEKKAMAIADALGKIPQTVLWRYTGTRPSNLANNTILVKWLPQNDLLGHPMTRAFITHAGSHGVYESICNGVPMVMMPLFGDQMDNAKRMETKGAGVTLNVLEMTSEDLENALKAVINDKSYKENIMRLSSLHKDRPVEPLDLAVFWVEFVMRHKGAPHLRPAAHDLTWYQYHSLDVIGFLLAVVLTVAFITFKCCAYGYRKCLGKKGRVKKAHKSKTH
In words: Substrate of human UDP-glucuronosyltransferase UGT1A10.

A further data set addresses Sulfotransferase 1C4 (Homo sapiens, UniProt O75897). Description: Major substrate of human cytosolic sulfotransferase SULT1C4.
The next data set deals with Sulfotransferase 1A3 (Homo sapiens, UniProt P0DMM9). In words: Major substrate of human cytosolic sulfotransferase SULT1A3.
The target of the next data set is T5, Sulfotransferase 2A1 (Homo sapiens, UniProt Q06520).
T5 sequence (Q06520 whole entry): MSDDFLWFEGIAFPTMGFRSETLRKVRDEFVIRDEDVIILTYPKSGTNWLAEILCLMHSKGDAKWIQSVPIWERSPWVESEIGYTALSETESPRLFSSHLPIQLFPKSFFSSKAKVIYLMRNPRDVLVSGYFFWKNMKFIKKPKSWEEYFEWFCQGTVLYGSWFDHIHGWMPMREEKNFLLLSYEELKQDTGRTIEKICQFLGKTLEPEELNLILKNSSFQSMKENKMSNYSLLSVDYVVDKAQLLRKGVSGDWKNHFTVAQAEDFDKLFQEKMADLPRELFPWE
Description: Major substrate of human cytosolic sulfotransferase SULT2A1.

In the next data set the target is T6, Sulfotransferase 1E1 (Homo sapiens, UniProt P49888).
T6 sequence (P49888 whole entry): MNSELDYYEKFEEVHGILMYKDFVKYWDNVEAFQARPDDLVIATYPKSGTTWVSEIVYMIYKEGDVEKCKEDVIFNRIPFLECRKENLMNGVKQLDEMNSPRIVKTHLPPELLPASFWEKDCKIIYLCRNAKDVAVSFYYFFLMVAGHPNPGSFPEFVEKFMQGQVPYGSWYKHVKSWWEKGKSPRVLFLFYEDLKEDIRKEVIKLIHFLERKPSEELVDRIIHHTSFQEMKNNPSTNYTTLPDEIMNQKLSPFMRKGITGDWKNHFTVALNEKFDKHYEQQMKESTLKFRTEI
In words: Major substrate of human cytosolic sulfotransferase SULT1E1.

The target in data set [2] is T7, UDP-glucuronosyltransferase 1A8 (Homo sapiens, UniProt Q9HAW9).
T7 sequence (Q9HAW9 whole entry): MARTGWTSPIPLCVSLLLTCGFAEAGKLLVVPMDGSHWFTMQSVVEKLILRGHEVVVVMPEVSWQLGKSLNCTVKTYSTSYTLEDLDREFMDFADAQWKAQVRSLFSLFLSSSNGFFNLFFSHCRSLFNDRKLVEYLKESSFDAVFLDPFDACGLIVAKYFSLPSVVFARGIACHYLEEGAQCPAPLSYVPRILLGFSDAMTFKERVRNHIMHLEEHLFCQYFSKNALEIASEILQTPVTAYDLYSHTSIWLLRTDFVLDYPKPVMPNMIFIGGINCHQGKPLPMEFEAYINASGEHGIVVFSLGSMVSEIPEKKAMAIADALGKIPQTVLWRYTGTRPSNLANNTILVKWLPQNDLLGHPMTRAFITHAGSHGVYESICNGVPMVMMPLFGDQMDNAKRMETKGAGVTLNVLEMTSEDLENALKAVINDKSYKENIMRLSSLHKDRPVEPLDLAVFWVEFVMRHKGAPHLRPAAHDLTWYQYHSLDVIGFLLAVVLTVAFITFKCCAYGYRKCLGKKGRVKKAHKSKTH
In words: Substrate of human UDP-glucuronosyltransferase UGT1A8.

Data set [3] addresses T8, UDP-glucuronosyltransferase 1A1 (Homo sapiens, UniProt P22309).
T8 sequence (P22309 whole entry): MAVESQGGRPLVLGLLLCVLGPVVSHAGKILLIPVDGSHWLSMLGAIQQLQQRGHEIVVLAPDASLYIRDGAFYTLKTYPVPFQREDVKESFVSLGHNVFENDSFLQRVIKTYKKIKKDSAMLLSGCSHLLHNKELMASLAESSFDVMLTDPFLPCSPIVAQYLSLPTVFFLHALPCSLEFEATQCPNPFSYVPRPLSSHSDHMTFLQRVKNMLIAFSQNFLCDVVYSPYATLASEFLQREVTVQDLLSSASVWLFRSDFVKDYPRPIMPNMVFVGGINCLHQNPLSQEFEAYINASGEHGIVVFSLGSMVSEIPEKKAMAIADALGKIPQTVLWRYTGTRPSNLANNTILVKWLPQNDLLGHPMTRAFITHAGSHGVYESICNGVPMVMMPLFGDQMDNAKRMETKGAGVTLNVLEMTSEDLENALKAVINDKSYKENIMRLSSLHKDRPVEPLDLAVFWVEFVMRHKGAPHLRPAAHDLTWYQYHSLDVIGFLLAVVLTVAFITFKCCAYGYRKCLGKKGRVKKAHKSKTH
Description: Substrate of human UDP-glucuronosyltransferase UGT1A1.

Chain of Sulfotransferase 1A3 (P0DMM9 whole entry): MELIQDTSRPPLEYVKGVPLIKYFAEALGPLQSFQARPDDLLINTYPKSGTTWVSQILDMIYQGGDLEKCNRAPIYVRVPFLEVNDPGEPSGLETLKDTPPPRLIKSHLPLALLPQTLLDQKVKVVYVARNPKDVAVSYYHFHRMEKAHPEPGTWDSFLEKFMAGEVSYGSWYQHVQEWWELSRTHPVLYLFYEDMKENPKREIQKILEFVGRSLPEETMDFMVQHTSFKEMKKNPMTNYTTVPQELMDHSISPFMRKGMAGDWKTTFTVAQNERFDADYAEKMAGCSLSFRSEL
Chain of Sulfotransferase 1A1 (P50225 whole entry): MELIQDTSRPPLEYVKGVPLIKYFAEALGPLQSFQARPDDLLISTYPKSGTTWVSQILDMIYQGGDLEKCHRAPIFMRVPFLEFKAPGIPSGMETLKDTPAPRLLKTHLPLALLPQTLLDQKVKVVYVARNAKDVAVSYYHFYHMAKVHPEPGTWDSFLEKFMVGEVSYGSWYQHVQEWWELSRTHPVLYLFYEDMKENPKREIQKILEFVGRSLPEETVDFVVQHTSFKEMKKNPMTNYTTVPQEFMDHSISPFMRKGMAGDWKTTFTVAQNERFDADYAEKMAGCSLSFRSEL
Chain of Sulfotransferase 1B1 (O43704 whole entry): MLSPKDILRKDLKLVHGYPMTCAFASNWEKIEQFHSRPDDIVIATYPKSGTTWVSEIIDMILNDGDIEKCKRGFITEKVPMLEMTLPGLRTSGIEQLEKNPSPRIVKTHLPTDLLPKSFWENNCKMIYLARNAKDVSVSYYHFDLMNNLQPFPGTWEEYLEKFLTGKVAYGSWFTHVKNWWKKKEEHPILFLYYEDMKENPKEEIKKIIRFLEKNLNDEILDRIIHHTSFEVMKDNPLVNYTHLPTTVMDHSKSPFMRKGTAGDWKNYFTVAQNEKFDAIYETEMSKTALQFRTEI
Chain of Sulfotransferase 1C4 (O75897 whole entry): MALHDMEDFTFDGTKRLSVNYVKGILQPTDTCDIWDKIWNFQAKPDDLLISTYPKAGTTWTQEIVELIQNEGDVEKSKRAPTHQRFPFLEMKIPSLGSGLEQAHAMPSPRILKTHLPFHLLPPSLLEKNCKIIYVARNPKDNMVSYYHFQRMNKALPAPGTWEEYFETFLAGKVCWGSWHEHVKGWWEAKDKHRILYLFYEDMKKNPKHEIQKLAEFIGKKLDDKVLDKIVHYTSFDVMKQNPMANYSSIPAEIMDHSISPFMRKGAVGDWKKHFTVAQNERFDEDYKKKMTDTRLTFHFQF

Regarding `Cc1ccnc2c1NC(=O)c1cccnc1N2C1CC1` [NEVIRAPINE], the Activity result at Cytochrome P450 2B6 is listed as “Substrate”.

Regarding `N[C@@H](Cc1cc(I)c(Oc2ccc(O)c(I)c2)c(I)c1)C(=O)O` [LIOTHYRONINE], the Activity result on Sulfotransferase 4A1, at Sulfotransferase 1B1 and at Sulfotransferase 1A1 was “Substrate” throughout.

Turning to `O=P1(N(CCCl)CCCl)NCCCO1` (stereo not drawn) [CYCLOPHOSPHAMIDE ANHYDROUS], at Cytochrome P450 2B6, the Activity result is “Substrate”.

On to `N[C@@H](Cc1ccc(Oc2cc(I)c(O)c(I)c2)c(I)c1)C(=O)O` [REVERSE TRIIODOTHYRONINE], for which, on Sulfotransferase 1B1, the Activity entry is listed as “Substrate”.

Turning to `O=c1c(O)c(-c2ccc(O)c(O)c2)oc2cc(O)cc(O)c12` [QUERCETIN], at Cytochrome P450 2C8, the Activity entry is on record as “Inhibitor”.

For the compound `Nc1ccc2ccccc2c1` [NAPHTHYLAMINE], on Sulfotransferase 4A1, the Activity entry is listed as “Substrate”.

In the case of `CC#C[C@]1(O)CC[C@H]2[C@@H]3CCc4cc(O)ccc4[C@H]3CC[C@@]21C` [ESTROGEN], the Activity entry in data set [1] is “Substrate”.

`OCc1ccc2ccc3cccc4ccc1c2c34`: the Activity result at Sulfotransferase 1C4, at Sulfotransferase 1A3 and on Sulfotransferase 2A1 was “Substrate” in each case.

Turning to `CC[C@@]1(c2ccccc2)NC(=O)N(C)C1=O`, the Activity result on Cytochrome P450 2B6 is given as “Substrate”.

In the case of `CNC1(c2ccccc2Cl)CCCCC1=O` (stereo not drawn) [KETAMINE], the Activity result at Cytochrome P450 2B6 is reported as “Substrate”.

As for `CC(C)c1nc(N(C)S(C)(=O)=O)nc(-c2ccc(F)cc2)c1/C=C/[C@@H](O)C[C@@H](O)CC(=O)O` [ROSUVASTATIN], on Cytochrome P450 2C8, the Activity entry is on record as “Inhibitor”.

Turning to `NC[C@H](O)c1ccc(O)c(O)c1` [NOREPINEPHRINE], on Sulfotransferase 1A3, the Activity entry was “Substrate”.

For the compound `CCc1ccc(CCOc2ccc(CC3SC(=O)NC3=O)cc2)nc1` (stereo not drawn) [PIOGLITAZONE], the Activity result at Cytochrome P450 2C8 was “Inhibitor”.

In the case of `C[C@]12CC[C@@H]3c4ccc(O)cc4CC[C@H]3[C@@H]1CCC2=O` [ESTRONE], the Activity result on Sulfotransferase 1C4, on Sulfotransferase 4A1, at Sulfotransferase 1E1 and at Sulfotransferase 2A1 was “Substrate” in each case.

Consider `NC(Cc1ccc(Oc2ccc(O)c(I)c2)c(I)c1)C(=O)O` (stereo not drawn) [DIIODOTHYRONINE], for which the Activity entry at Sulfotransferase 1B1 and at Sulfotransferase 1A1 was “Substrate” each time.

Consider `Cc1c(C)c2c(c(C)c1O)CCC(C)(COc1ccc(CC3SC(=O)NC3=O)cc1)O2` (stereo not drawn) [TROGLITAZONE], for which the Activity entry (on Sulfotransferase 1A1; in [1]; in data set [2]) was “Substrate” in each case.

For the compound `Cc1ccc(C)c(OCCCC(C)(C)C(=O)O)c1` [GEMFIBROZIL], on Cytochrome P450 2C8, the Activity entry was “Inhibitor”.

On to `O=C1Nc2ccc(Cl)cc2[C@@](C#CC2CC2)(C(F)(F)F)O1` [EFAVIRENZ], for which the Activity entry on Cytochrome P450 2B6 is recorded as “Substrate”.

`CC(CCc1ccc(O)cc1)NCCc1ccc(O)c(O)c1` (stereo not drawn) [DOBUTAMINE]: the Activity result at Sulfotransferase 1A3 was “Substrate”.

In the case of `CCOC(=O)C1(c2ccccc2)CCN(C)CC1` [MEPERIDINE], the Activity entry on Cytochrome P450 2B6 is listed as “Substrate”.

Turning to `CC(C)(O)c1ccccc1CC[C@@H](SCC1(CC(=O)O)CC1)c1cccc(/C=C/c2ccc3ccc(Cl)cc3n2)c1` [MONTELUKAST], on Cytochrome P450 2C8, the Activity result is listed as “Inhibitor”.

Regarding `N[C@@H](Cc1cc(I)c(Oc2cc(I)c(O)c(I)c2)c(I)c1)C(=O)O` [LEVOTHYROXINE], the Activity entry (at Sulfotransferase 4A1; at Sulfotransferase 1B1; in [3]) was “Substrate” throughout.

Take `CC(C)(C)NCC(O)c1ccc(O)c(CO)c1` (stereo not drawn) [ALBUTEROL]: the Activity entry on Sulfotransferase 1A3 was “Substrate”.

On to `NCCc1ccc(O)c(O)c1` [DOPAMINE], for which the Activity result at Sulfotransferase 1A3, at Sulfotransferase 1B1 and on Sulfotransferase 1A1 was “Substrate” each time.
